From patent publication US20200045983A1, “PROMOTER FOR LEGUMINOUS PLANT GROWTH” (KAO CORPORATION, priority 2017, published 2020)

Assays:
soybean (Glycine max) [1] = assay: Effect of soyasaponin Bb on soybean growth, in combination with root nodule bacterium material (Example 2); assay type: in vivo; settings: for foliar age among the three plots / plant height among the three plots / above-ground part fresh weight vs only the root nodule bacterium material / root nodule weight vs only the root nodule bacterium material / number of lateral buds / increase in the number of root nodules vs only the root nodule bacterium material: 1 mL of 20 μM solution, 24 days; for above-ground part fresh weight vs only the root nodule bacterium material: no significant change; for root nodule weight vs only the root nodule bacterium material: no significant difference; for number of lateral buds: rarely seen in non-application plot; for increase in the number of root nodules vs only the root nodule bacterium material: significant only for genistein
Description: Each Leonard jar filled with culture soil (Takii water-containing cell culture soil TM-1, Takii & Co., Ltd.) was irrigated with 100 mL of tap water. Then, a root nodule bacterium material (“Dr Mametaro®” (Idemitsu Kosan Co., Ltd.) was distributed at a thickness on the order of 5 mm onto the culture soil in the jar using a spatula. Two seeds of soybean (cultivar “Ryokuheki”, Kaneko Seeds Co., Ltd.) were sown by burying at a depth of approximately 1 cm from the culture soil surface. 1 mL of a solution of 20 μM soyasaponin Bb (soyasaponin I, ChromaDex, Inc.) dissolved in 50 mM TAPS buffer (pH 7.7) was added dropwise onto the culture soil covering the seeds using a micropipette. The soyasaponin Bb concentration in the culture soil was approximately 0.3 ppm. Only 1 mL of 50 mM TAPS buffer as a negative control and 1 mL of 20 μM genistein (Gen) solution as a positive control of root nodule formation promotion were applied in the same way as above (for the root nodule formation-promoting effect of genistein, see: Plant and Soil, 1997, 192: 141-151; and Secretions and Exudates in Biological Systems 27-48, Signaling and Communication in Plants 12, Springer-Verlag Berlin Heidelberg, 2012).
Plant cultivation was performed under the same conditions as in Example 1. 24 days after the sowing, growth indexes (foliar age, plant height, the number of lateral buds, above-ground part fresh weight, underground part fresh weight, the number of root nodules, and root nodule fresh weight) were measured. Each growth index was obtained as to each test plot by determining a mean of two plant individuals in each jar, and subsequently calculating a mean of four jars (n=4). The Tukey-Kramer method was used to test the significant difference among the plots.

soybean (Glycine max) [2] = assay: Effect of saponin formulation and iron phosphate in combination on soybean yield (Example 10); assay type: in vivo; settings: 50 mg saponin formulation and/or 0.75 mg iron(III) phosphate tetrahydrate per pot, irrigation, 86 days
Description: “Ryokuheki” (Kaneko Seeds Co., Ltd.) was used as soybean seeds. Each Wagner pot of 1/5,000 a was filled with approximately 4 L of culture soil (Takii water-containing cell culture soil, intermedium-acting fertilizer effect type:expanded vermiculite=1:1 (volume ratio)), and three seeds were sown at a depth of approximately 1 cm from the culture soil surface. 50 mg of a saponin formulation (“soybean saponin 80”; AccessOne Co., Ltd.), 0.75 mg of iron(III) phosphate tetrahydrate (Junsei Chemical Co., Ltd.), and a mixture thereof were each suspended in 100 mL of tap water, and the culture soil surface was irrigated with each suspension (“saponin plot”, “iron phosphate plot” and “combination plot”, respectively; both the concentrations of the saponin formulation of the combination plot and the saponin plot in the culture soil were approximately 12.5 ppm and corresponded to approximately 6.1 ppm in terms of the concentration of group B soyasaponin calculated from quantification results (Table 7) in Production Example 1). […] 86 days after the sowing, pods (the pods include grains; the same holds true for the description below) were harvested, and a pod fresh weight per plant (pot) and a pod fresh weight per pod (average weight per pod) were measured (n=7 only for the combination plot, and n=8 for the other plots). […]

soybean (Glycine max) [3] = assay: Effect of soyasaponin Bb on soybean growth in culture soil (Example 1); assay type: in vivo; settings: approx. 0.3 ppm in culture soil, 24 days after sowing
Description: Each Leonard jar (Soil Science and Plant Nutrition, 1983, 29: 97-100) filled with approximately 65 g of culture soil (Takii water-containing cell culture soil TM-1, Takii & Co., Ltd.) was irrigated with 100 mL of tap water. Then, two seeds of soybean (cultivar “Ryokuheki”, Kaneko Seeds Co., Ltd.) were sown by burying at a depth of approximately 1 cm from the culture soil surface. 1 mL of a solution of 20 μM soyasaponin Bb (soyasaponin I, ChromaDex, Inc.) dissolved in 50 mM TAPS buffer (pH 7.7) was added dropwise onto the culture soil covering the seeds using a micropipette. The soyasaponin Bb concentration in the culture soil was approximately 0.3 ppm (ppm by mass; the same holds true for the description below). 50 mM TAPS buffer (pH 7.7) was applied as a control (soyasaponin Bb non-application plot) in the same way as above.
Plant cultivation was performed in a plant growth chamber (LPH-350SP, Nippon Medical & Chemical Instruments Co., Ltd.). The light conditions were set to 16-hour light (light intensity: 130 μmol/m^2/s)/8-hour dark. The temperature was set to 26° C. for light and 20° C. for dark, and the humidity was set to 50%. Water supply was performed appropriately (approximately once per 7 to 10 days) by the addition of tap water in an appropriate amount to the lower part of the jar. 24 days after the sowing, growth indexes (foliar age, plant height, the number of lateral buds, above-ground part fresh weight, and underground part fresh weight) were measured. Each growth index was obtained as to each of the soyasaponin Bb non-application plot (control) and the soyasaponin Bb application plot by determining a mean of two plant individuals in each jar, and subsequently calculating a mean of four jars (n=4). The Student's t test was used to test the significant difference between the soyasaponin Bb application plot and the non-application plot.

lettuce (Lactuca sativa) = settings: Non Patent Literatures 7 to 10; cited from earlier work

Row | SMILES | foliar age among the three plots (soybean (Glycine max) [1]) | plant height among the three plots (soybean (Glycine max) [1]) | above-ground part fresh weight vs only the root nodule bacterium material (soybean (Glycine max) [1]) | root nodule weight vs only the root nodule bacterium material (soybean (Glycine max) [1]) | number of lateral buds (soybean (Glycine max) [1]) | increase in the number of root nodules vs only the root nodule bacterium material (soybean (Glycine max) [1]) | increase in pod fresh weight per pod with respect to the non-application plot (soybean (Glycine max) [2]; significant (5% or less)) | increase in pod fresh weight per plant with respect to the non-application plot (soybean (Glycine max) [2]; significant only for combination) | foliar age vs non-application plot (soybean (Glycine max) [3]) | plant height vs non-application plot (soybean (Glycine max) [3]) | increase in the number of lateral buds with respect to the non-application plot (soybean (Glycine max) [3]; statistically significant) | increase in underground part fresh weight with respect to the non-application plot (soybean (Glycine max) [3]; statistically significant) | increase in above-ground part fresh weight with respect to the non-application plot (soybean (Glycine max) [3]; tendency, no significant difference) | increase in underground part fresh weight with respect to only the root nodule bacterium material (soybean (Glycine max) [1]; 1 mL of 20 μM solution (approx. 0.3 ppm in culture soil), 24 days after sowing, statistically significant) | lettuce radicle elongation (lettuce (Lactuca sativa))
1 | O=c1c(-c2ccc(O)cc2)coc2cc(O)cc(O)c12 [genistein, reference compound] | did not differ significantly | did not differ significantly | tendency toward increase | tendency toward increase | on average one per individual | approximately 1.7 times |  |  |  |  |  |  |  |  | 
2 | O.O.O.O.O=P([O-])([O-])[O-].[Fe+3] [iron phosphate, iron(III) phosphate tetrahydrate] |  |  |  |  |  |  | approximately 10% | approximately 10% |  |  |  |  |  |  | 
3 | C[C@@H]1O[C@@H](O[C@H]2[C@H](O[C@H]3[C@H](O[C@H]4CC[C@@]5(C)[C@@H](CC[C@]6(C)[C@@H]5CC=C5[C@@H]7CC(C)(C)C[C@@H](O)[C@]7(C)CC[C@]56C)[C@@]4(C)CO)O[C@H](C(=O)O)[C@@H](O)[C@@H]3O)O[C@H](CO)[C@H](O)[C@@H]2O)[C@H](O)[C@H](O)[C@H]1O [soyasaponin Bb] | did not differ significantly | did not differ significantly | tendency toward increase | tendency toward increase | on average one per individual | approximately 1.3 times |  |  | did not differ significantly | did not differ significantly | approximately 2.7 times | approximately 2.2 times | approximately 1.1 times | approximately 1.5 times | relatively weak or was not seen
4 | CC1=C(O)C(=O)C[C@H](O[C@@H]2CC(C)(C)C[C@H]3C4=CC[C@@H]5[C@@]6(C)CC[C@H](O[C@@H]7O[C@H](C(=O)O)[C@@H](O)[C@H](O)[C@H]7O[C@@H]7O[C@H](CO)[C@H](O)[C@H](O)[C@H]7O[C@@H]7O[C@@H](C)[C@H](O)[C@@H](O)[C@H]7O)[C@](C)(CO)[C@@H]6CC[C@@]5(C)[C@]4(C)CC[C@@]23C)O1 [soyasaponin βg, reference compound] |  |  |  |  |  |  |  |  |  |  |  |  |  |  | promoted
